Results as given in ChEMBL document CHEMBL1133965, “Total synthesis of Calebin-A, preparation of its analogues, and their neuronal cell protectivity against beta-amyloid insult” (2001).
≈ marks a conversion by molar mass, not a printed value.

Legend:
IMR-32 [1] = test: Evaluated for neuronal cell protectivity against beta-amyloid (25,35) insult towards IMR-32 human neuroblastoma cell; format: functional; settings: read-out: ED50 (the source's name)
PC-12 [2] = test: Evaluated for neuronal cell protectivity against beta-amyloid (25,35) insult towards PC12 rat pheochromocytoma cell; format: functional; settings: read-out: ED50 (the source's name)
IMR-32 [3] = test: (§1) Evaluated for neuronal cell protectivity against beta-amyloid (25,35) insult towards IMR-32 human neuroblastoma cell; No protection; format: functional
PC-12 [4] = test: Evaluated for neuronal cell protectivity against beta-amyloid (25,35) insult towards PC12 rat pheochromocytoma cell; No protection; format: functional
IMR-32 [5] = test: as §1; format: functional, cell-based
PC-12 [6] = test: Evaluated for neuronal cell protectivity against beta-amyloid (25,35) insult towards PC12 rat pheochromocytoma cell

## COc1cc(/C=C/C(=O)CC(=O)/C=C/c2ccc(O)c(OC)c2)ccc1O [CURCUMIN]
IMR-32 [1]
  EC50: 7.4 µg/mL (≈ 20.1 µM)
PC-12 [2]
  EC50: 7.1 µg/mL (≈ 19.3 µM)

## VITAMIN E
IMR-32 [3]
  ED50: No protection
PC-12 [4]
  ED50: No protection

## COc1cc(/C=C/C(=O)COC(=O)/C=C/c2ccc(OC(C)=O)cc2)ccc1O
IMR-32 [3]
  ED50: No protection
PC-12 [4]
  ED50: No protection

## COc1cc(/C=C/C(=O)COC(=O)/C=C/c2ccc(Cl)cc2)ccc1O
IMR-32 [3]
  ED50: No protection
PC-12 [4]
  ED50: No protection

## COc1cc(/C=C/C(=O)COC(=O)/C=C/c2cccc(O)c2)ccc1O
IMR-32 [1]
  EC50: 15.8 µg/mL (≈ 44.6 µM)
PC-12 [2]
  EC50: 13.2 µg/mL (≈ 37.3 µM)

## COc1cc(/C=C/C(=O)COC(=O)/C=C/c2ccc3c(c2)OCO3)ccc1O
IMR-32 [3]
  ED50: No protection
PC-12 [4]
  ED50: No protection

## COc1cccc(/C=C/C(=O)OCC(=O)/C=C/c2ccc(O)c(OC)c2)c1
IMR-32 [3]
  ED50: No protection
PC-12 [4]
  ED50: No protection

## COc1cc(/C=C/C(=O)COC(=O)/C=C/c2ccc(O)c(O)c2)ccc1O
IMR-32 [1]
  EC50: 7.9 µg/mL (≈ 21.3 µM)
PC-12 [2]
  EC50: 7.3 µg/mL (≈ 19.7 µM)

## COc1cc(/C=C/C(=O)COC(=O)/C=C/c2ccc(C)cc2)ccc1O
IMR-32 [3]
  ED50: No protection
PC-12 [4]
  ED50: No protection

## COc1cc(/C=C/C(=O)COC(=O)/C=C/c2ccc(Br)cc2)ccc1O
IMR-32 [3]
  ED50: No protection
PC-12 [4]
  ED50: No protection

## COc1cc(/C=C/C(=O)COC(=O)/C=C/c2ccc(O)c(OC)c2)ccc1O [CALEBI A]
IMR-32 [1]
  EC50: 1.4 µg/mL (≈ 3.64 µM)
PC-12 [2]
  EC50: 1 µg/mL (≈ 2.6 µM)

## COc1cc(/C=C/C(=O)COC(=O)/C=C/c2ccccc2)ccc1O
IMR-32 [3]
  ED50: No protection
PC-12 [4]
  ED50: No protection

## COc1cc(/C=C/C(=O)COC(=O)/C=C/c2ccc(OC(C)=O)c(OC(C)=O)c2)ccc1O
IMR-32 [5]
  ED50: No protection
PC-12 [4]
  ED50: No protection

## COc1cc(/C=C/C(=O)COC(=O)/C=C/c2ccc(O)cc2)ccc1O
IMR-32 [3]; read-out: ED50 (the source's name)
  EC50: 1.2 µg/mL (≈ 3.39 µM)
PC-12 [6]
  ED50: 0.7 µg/mL (≈ 1.98 µM)

## COc1cc(/C=C/C(=O)COC(=O)/C=C/c2cccc(OC(C)=O)c2)ccc1O
IMR-32 [3]
  ED50: No protection
PC-12 [4]
  ED50: No protection

## COc1ccc(/C=C/C(=O)OCC(=O)/C=C/c2ccc(O)c(OC)c2)cc1
IMR-32 [3]
  ED50: No protection
PC-12 [4]
  ED50: No protection
